PubChem BioAssay AID248 (DTP/NCI, 2004)
Several values for one entry are separate records, joined by “and”; a condition that tells them apart may be missing. Equal entries are not always repeated. Toxic doses and inconclusive results are not listed. Cut-off read from the data, not from the text of the source: active = T/C of 150% or more; inactive = T/C below 125%.

System: L1210 leukemia ip in BDF1 mice, survival T/C
Experiment: NCI In Vivo Anticancer Drug Screen. Data for tumor model L1210 Leukemia (intraperitoneal) in B6D2F1 (BDF1) mice
Details: endpoint: mean survival time, higher = longer survival
In short: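 Ratio derived from survival: compound-dosed mice over vehicle-dosed mice, all bearing a transplantable tumor.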

[1] = dose: 100.0 mg/kg/injection, schedule: Q01DX001 (ip), vehicle: saline
[2] = dose: 200.0 mg/kg/injection, schedule: Q01DX001 (ip), vehicle: saline
[3] = dose: 400.0 mg/kg/injection, schedule: Q01DX001 (ip), vehicle: saline
[4] = dose: 100.0 mg/kg/injection, schedule: Q04DX003 (ip), vehicle: Klucel (hydroxypropylcellulose) (HPC)
[5] = dose: 200.0 mg/kg/injection, schedule: Q04DX003 (ip), vehicle: Klucel (hydroxypropylcellulose) (HPC)
[6] = dose: 400.0 mg/kg/injection, schedule: Q04DX003 (ip), vehicle: Klucel (hydroxypropylcellulose) (HPC)
[7] = dose: 100.0 mg/kg/injection, schedule: Q01DX009 (ip), vehicle: saline with Tween-80
[8] = dose: 200.0 mg/kg/injection, schedule: Q01DX009 (ip), vehicle: saline with Tween-80
[9] = dose: 100.0 mg/kg/injection, schedule: Q04DX002 (ip), vehicle: Klucel (hydroxypropylcellulose) (HPC)

Measured: T/C

CCCCCOC(=O)C1OC1(CC)c1ccccc1 (stereo unspecified)
inactive: dose: 100.0 mg/kg/injection, schedule: Q04DX002 (ip), vehicle: saline 97 % of control | dose: 200.0 mg/kg/injection, schedule: Q04DX002 (ip), vehicle: saline 101 % of control | dose: 400.0 mg/kg/injection, schedule: Q04DX002 (ip), vehicle: saline 120 % of control

O=[N+]([O-])c1ccc(S(=O)(=O)n2cccc2)cc1
inactive: dose: 50.0 mg/kg/injection, schedule: Q01DX001 (ip), vehicle: saline 98 % of control | [1] 95 % of control | [2] 95 % of control | [3] 98 % of control

S=C(c1ccccc1)N(c1ccccc1)c1ccc2ccccc2c1
inactive: [4] 98 % of control | [5] 95 % of control | [6] 94 % of control

CN(C)c1ccc(/C=N/NC(=O)CNC(=O)c2ccc(Cl)c(Cl)c2)cc1
inactive: dose: 50.0 mg/kg/injection, schedule: Q01DX009 (ip), vehicle: saline with Tween-80 86 % of control | [7] 94 % of control | [8] 88 % of control

Clc1nc2ccccc2[nH]1
inactive: [1] 114 % of control | [2] 105 % of control | [3] 110 % of control

Nc1ccnc(SCCCCc2ccccc2)n1
inactive: dose: 100.0 mg/kg/injection, schedule: Q04DX003 (ip), vehicle: gum acacia 90 % of control | dose: 200.0 mg/kg/injection, schedule: Q04DX003 (ip), vehicle: gum acacia 93 % of control | dose: 400.0 mg/kg/injection, schedule: Q04DX003 (ip), vehicle: gum acacia 90 % of control

CC(=O)Nc1cc(F)cc(F)c1Br
inactive: dose: 100.0 mg/kg/injection, schedule: Q01DX001 (ip), vehicle: carboxymethylcellulose (CMC) 105 % of control | dose: 200.0 mg/kg/injection, schedule: Q01DX001 (ip), vehicle: carboxymethylcellulose (CMC) 102 % of control | dose: 400.0 mg/kg/injection, schedule: Q01DX001 (ip), vehicle: carboxymethylcellulose (CMC) 112 % of control

O=C1NC(=O)C2(CCCCC2)N1
inactive: dose: 6.25 mg/kg/injection, schedule: Q04DX003 (ip), vehicle: Klucel (hydroxypropylcellulose) (HPC) 94 % of control | dose: 12.5 mg/kg/injection, schedule: Q01DX009 (ip), vehicle: Klucel (hydroxypropylcellulose) (HPC) 95 % of control | dose: 12.5 mg/kg/injection, schedule: Q04DX003 (ip), vehicle: Klucel (hydroxypropylcellulose) (HPC) 94 % of control | dose: 25.0 mg/kg/injection, schedule: Q01DX009 (ip), vehicle: Klucel (hydroxypropylcellulose) (HPC) 96 % of control | dose: 25.0 mg/kg/injection, schedule: Q04DX003 (ip), vehicle: Klucel (hydroxypropylcellulose) (HPC) 87 % of control and 97 % of control | dose: 50.0 mg/kg/injection, schedule: Q01DX009 (ip), vehicle: Klucel (hydroxypropylcellulose) (HPC) 100 % of control | dose: 50.0 mg/kg/injection, schedule: Q04DX003 (ip), vehicle: Klucel (hydroxypropylcellulose) (HPC) 96 % of control and 101 % of control | dose: 75.0 mg/kg/injection, schedule: Q01DX009 (ip), vehicle: Klucel (hydroxypropylcellulose) (HPC) 102 % of control

CCCCCCCC/C=C\CCCCCCCCSC#N
inactive: dose: 25.0 mg/kg/injection, schedule: Q04DX002 (ip), vehicle: saline with Tween-80 97 % of control | dose: 50.0 mg/kg/injection, schedule: Q04DX002 (ip), vehicle: saline with Tween-80 106 % of control | [7] 97 % of control | dose: 100.0 mg/kg/injection, schedule: Q04DX002 (ip), vehicle: saline with Tween-80 100 % of control | [8] 97 % of control | dose: 200.0 mg/kg/injection, schedule: Q04DX002 (ip), vehicle: saline with Tween-80 103 % of control | dose: 400.0 mg/kg/injection, schedule: Q04DX002 (ip), vehicle: saline with Tween-80 87 % of control

O=C(Nc1cccc([N+](=O)[O-])c1)Nc1cccc(C(F)(F)F)c1
inactive: [9] 101 % of control | dose: 200.0 mg/kg/injection, schedule: Q04DX002 (ip), vehicle: Klucel (hydroxypropylcellulose) (HPC) 99 % of control | dose: 400.0 mg/kg/injection, schedule: Q04DX002 (ip), vehicle: Klucel (hydroxypropylcellulose) (HPC) 96 % of control

Oc1cccc[c]1[Hg][Cl]
inactive: dose: 1.0 mg/kg/injection, schedule: Q01DX009 (ip), vehicle: Klucel (hydroxypropylcellulose) (HPC) 98 % of control | dose: 1.0 mg/kg/injection, schedule: Q04DX003 (ip), vehicle: saline 98 % of control | dose: 3.0 mg/kg/injection, schedule: Q01DX009 (ip), vehicle: Klucel (hydroxypropylcellulose) (HPC) 89 % of control | dose: 3.0 mg/kg/injection, schedule: Q04DX003 (ip), vehicle: saline 94 % of control | dose: 6.0 mg/kg/injection, schedule: Q01DX009 (ip), vehicle: Klucel (hydroxypropylcellulose) (HPC) 94 % of control and 91 % of control

Cc1cc(C(=O)O)c(CN)c(=O)n1C
inactive: dose: 100.0 mg/kg/injection, schedule: Q04DX003 (ip), vehicle: water 102 % of control | dose: 200.0 mg/kg/injection, schedule: Q04DX003 (ip), vehicle: water 103 % of control | dose: 400.0 mg/kg/injection, schedule: Q04DX003 (ip), vehicle: water 102 % of control

CP(=S)(c1ccccc1)P(C)(=S)c1ccccc1 (stereo unspecified)
inactive: dose: 100.0 mg/kg/injection, schedule: Q01DX009 (ip), vehicle: Klucel (hydroxypropylcellulose) (HPC) 99 % of control | [4] 98 % of control | dose: 200.0 mg/kg/injection, schedule: Q01DX009 (ip), vehicle: Klucel (hydroxypropylcellulose) (HPC) 103 % of control | [5] 101 % of control | dose: 400.0 mg/kg/injection, schedule: Q01DX009 (ip), vehicle: Klucel (hydroxypropylcellulose) (HPC) 94 % of control | [6] 98 % of control

CCC1(C)CC(=O)NC(=O)C1
inactive: dose: 0.9 mg/kg/injection, schedule: Q01DX009 (ip), vehicle: saline 98 % of control | dose: 1.87 mg/kg/injection, schedule: Q01DX009 (ip), vehicle: saline 108 % of control | dose: 3.75 mg/kg/injection, schedule: Q01DX009 (ip), vehicle: saline 104 % of control | dose: 3.75 mg/kg/injection, schedule: Q04DX003 (ip), vehicle: saline 106 % of control | dose: 5.0 mg/kg/injection, schedule: Q04DX003 (ip), vehicle: saline with Tween-80 101 % of control | dose: 7.5 mg/kg/injection, schedule: Q01DX009 (ip), vehicle: saline 106 % of control | dose: 7.5 mg/kg/injection, schedule: Q04DX003 (ip), vehicle: saline 92 % of control | dose: 10.0 mg/kg/injection, schedule: Q04DX003 (ip), vehicle: saline with Tween-80 97 % of control | dose: 15.0 mg/kg/injection, schedule: Q01DX009 (ip), vehicle: saline 100 % of control | dose: 15.0 mg/kg/injection, schedule: Q04DX003 (ip), vehicle: saline 95 % of control

Oc1ccc(O)c2[nH]c(-c3ccc(Cl)cc3)cc12
inactive: dose: 25.0 mg/kg/injection, schedule: Q04DX002 (ip), vehicle: Klucel (hydroxypropylcellulose) (HPC) 94 % of control | dose: 50.0 mg/kg/injection, schedule: Q04DX002 (ip), vehicle: Klucel (hydroxypropylcellulose) (HPC) 100 % of control | [9] 100 % of control

C=CCc1cc(OC)cc(C(=O)c2cccc(OC)c2C#N)c1OC
inactive: dose: 100.0 mg/kg/injection, schedule: Q01DX001 (ip), vehicle: other 104 % of control and 106 % of control | dose: 100.0 mg/kg/injection, schedule: Q04DX002 (ip), vehicle: other 104 % of control | dose: 100.0 mg/kg/injection, schedule: Q04DX003 (ip), vehicle: other 100 % of control and 92 % of control | dose: 200.0 mg/kg/injection, schedule: Q01DX001 (ip), vehicle: other 95 % of control and 107 % of control | dose: 200.0 mg/kg/injection, schedule: Q04DX002 (ip), vehicle: other 100 % of control and 92 % of control | dose: 200.0 mg/kg/injection, schedule: Q04DX003 (ip), vehicle: other 100 % of control and 92 % of control | dose: 400.0 mg/kg/injection, schedule: Q01DX001 (ip), vehicle: other 118 % of control and 90 % of control | dose: 400.0 mg/kg/injection, schedule: Q04DX002 (ip), vehicle: other 88 % of control and 89 % of control | dose: 400.0 mg/kg/injection, schedule: Q04DX003 (ip), vehicle: other 102 % of control and 92 % of control
